Oligonucleotides are written 5' to 3', each unit as a sugar letter and its base; * is a phosphorothioate linkage, no mark a phosphodiester; rarer units and linkages stand in square brackets, end groups in braces. Plain capitals give the bases only. d = 2'-deoxy (DNA); r = 2'-OH (RNA)
Target: not listed separately
Assay: reporter assay of Huesken 2005
Settings: siRNA
Note: test concentration or dose not given here.

| Substance | normalised inhibition (eCFP-eYFP dual reporter) [%] |
| --- | --- |
| sense rCrCrUrUrGrGrArArArCrGrArArCrCrArArGrCdTdT / antisense rGrCrUrUrGrGrUrUrCrGrUrUrUrCrCrArArGrGdGdA | 85.8 |
| sense rCrGrGrGrGrCrUrGrArGrArArArGrUrUrCrGrUdTdT / antisense rArCrGrArArCrUrUrUrCrUrCrArGrCrCrCrCrGdGdG | 95.2 |
| sense rCrGrUrUrUrCrArUrUrGrUrUrCrCrUrGrUrGrAdTdT / antisense rUrCrArCrArGrGrArArCrArArUrGrArArArCrGdAdC | 54.2 |
| sense rCrUrCrUrCrUrGrCrCrArCrArUrGrGrUrGrUrGdTdT / antisense rCrArCrArCrCrArUrGrUrGrGrCrArGrArGrArGdAdC | 46.7 |
| sense rCrUrCrUrGrUrCrUrCrUrCrUrGrCrCrArCrArUdTdT / antisense rArUrGrUrGrGrCrArGrArGrArGrArCrArGrArGdCdC | 62.3 |
| sense rCrUrUrArGrUrCrCrCrCrUrCrUrUrUrCrUrGrGdTdT / antisense rCrCrArGrArArArGrArGrGrGrGrArCrUrArArGdGdG | 87.5 |
| sense rCrUrUrCrUrGrArGrCrArArUrArUrCrCrCrCrAdTdT / antisense rUrGrGrGrGrArUrArUrUrGrCrUrCrArGrArArGdTdT | 93 |
| sense rCrUrUrGrArGrGrGrArGrArGrUrUrGrUrArCrCdTdT / antisense rGrGrUrArCrArArCrUrCrUrCrCrCrUrCrArArGdCdC | 63.4 |
| sense rCrUrUrGrCrCrUrCrUrGrArGrGrArArUrGrArGdTdT / antisense rCrUrCrArUrUrCrCrUrCrArGrArGrGrCrArArGdAdA | 59.8 |
| sense rGrArGrArGrArGrCrArArCrArGrGrGrUrArUrGdTdT / antisense rCrArUrArCrCrCrUrGrUrUrGrCrUrCrUrCrUrCdCdC | 85.5 |
| sense rGrArGrGrArCrUrCrCrUrUrCrCrUrUrCrUrCrUdTdT / antisense rArGrArGrArArGrGrArArGrGrArGrUrCrCrUrCdTdG | 81.2 |
| sense rGrArGrUrCrArArArGrGrUrCrArCrCrArGrArGdTdT / antisense rCrUrCrUrGrGrUrGrArCrCrUrUrUrGrArCrUrCdCdC | 85.9 |
| sense rGrArUrUrCrCrArCrCrArGrUrUrUrArGrArArGdTdT / antisense rCrUrUrCrUrArArArCrUrGrGrUrGrGrArArUrCdTdG | 84 |
| sense rGrArUrUrUrArGrGrCrUrUrGrArGrGrGrArGrAdTdT / antisense rUrCrUrCrCrCrUrCrArArGrCrCrUrArArArUrCdCdA | 90.8 |
| sense rGrCrArArCrArGrGrGrUrArUrGrCrArCrArCrCdTdT / antisense rGrGrUrGrUrGrCrArUrArCrCrCrUrGrUrUrGrCdTdC | 72.5 |
| sense rGrCrCrCrUrCrCrUrGrUrGrArCrCrUrCrCrArUdTdT / antisense rArUrGrGrArGrGrUrCrArCrArGrGrArGrGrGrCdAdC | 89 |

Target: UBE2V1
Assay: reporter assay of Huesken 2005
Settings: siRNA

| Substance | normalised inhibition (eCFP-eYFP dual reporter) [%] |
| --- | --- |
| sense rUrGrArGrUrGrArUrGrArArGrGrArArGrArCrUdTdT / antisense rArGrUrCrUrUrCrCrUrUrCrArUrCrArCrUrCrAdGdT | 62.3 |
| sense rUrGrCrUrArGrCrArArArArUrGrGrCrArGrArAdTdT / antisense rUrUrCrUrGrCrCrArUrUrUrUrGrCrUrArGrCrAdCdT | 71.4 |
| sense rUrGrGrArArGrArArCrUrCrGrArArGrArArGrGdTdT / antisense rCrCrUrUrCrUrUrCrGrArGrUrUrCrUrUrCrCrAdAdC | 59.9 |
| sense rUrGrGrCrArGrArArUrUrCrArUrArUrArGrCrAdTdT / antisense rUrGrCrUrArUrArUrGrArArUrUrCrUrGrCrCrAdTdT | 89.7 |
| sense rUrGrGrGrCrCrUrCrCrArArGrArArCrArArUrUdTdT / antisense rArArUrUrGrUrUrCrUrUrGrGrArGrGrCrCrCrAdAdT | 57.1 |
| sense rUrGrGrGrGrUrCrUrArGrArArGrArUrGrArCrGdTdT / antisense rCrGrUrCrArUrCrUrUrCrUrArGrArCrCrCrCrAdGdC | 38.8 |
| sense rUrUrArArArArUrArGrArArUrGrUrGrGrArCrCdTdT / antisense rGrGrUrCrCrArCrArUrUrCrUrArUrUrUrUrArAdGdG | 38.8 |
| sense rUrUrCrArCrUrGrCrArArArGrGrArGrUrArArAdTdT / antisense rUrUrUrArCrUrCrCrUrUrUrGrCrArGrUrGrArAdAdT | 81.4 |
| sense rUrUrCrCrGrArCrUrGrUrUrGrGrArArGrArArCdTdT / antisense rGrUrUrCrUrUrCrCrArArCrArGrUrCrGrGrArAdAdT | 52.3 |
| sense rUrUrGrUrCrCrUrGrCrArArGrArGrCrUrUrCrGdTdT / antisense rCrGrArArGrCrUrCrUrUrGrCrArGrGrArCrArAdCdT | 51.9 |

From the OligoGym collection
